These compounds were tested on HIV-IIIb (assay: Test A: Antiviral Assays in MT4 Cells). Settings: Human immunodeficiency virus 1, IIIB, MT4, 120 h, MT-4 cells infected with HIV-IIIb (0.004 m.o.i.), 5 days of incubation, CellTiter-Glo chemiluminescence readout.
Assay type: cell-based
Procedure: Test A: Antiviral Assays in MT4 Cells For the antiviral assay utilizing MT-4 cells, 0.4 μL of 189X test concentration of 3-fold serially diluted compound in DMSO was added to 40 μL of cell growth medium (RPMI 1640, 10% FBS, 1% penicillin/Streptomycin, 1% L-Glutamine, 1% HEPES) in each well of 384-well assay plates (10 concentrations) in quadruplicate. 1 mL aliquots of 2×10e6 MT-4 cells are pre-infected for 1 and 3 hrs respectively, @ 37° C. with 25 μL (MT4) or of either cell growth medium (mock-infected) or a fresh 1:250 dilution of an HIV-IIIb concentrated ABI stock (0.004 m.o.i. for MT4 cells). Infected and uninfected cells are diluted in cell growth medium and 35 uL of 2000 (for MT4) cells is added to each well of the assay plates. Assay plates were then incubated in a 37° C. incubator. After 5 days of incubation, 25 μl of 2× concentrated CellTiter-Glo™ Reagent (catalog #G7573, Promega Biosciences, Inc., Madison, Wis.) was added to each well of the assay plate. Cell lysis was carried out by incubating at room temperature for 2-3 min and then chemiluminescence was read using the Envision reader (PerkinElmer).
`Cc1cc2nc(C#Cc3ccccc3)ccc2c(-c2ccc3c4c(ccnc24)CCO3)c1[C@H](OC(C)(C)C)C(=O)O` (atropisomer, axis not shown) [Compound 40, (S)-2-tert-butoxy-2-((R)-5-(2,3-dihydropyrano[4,3,2-de]quinolin-7-yl)-7-methyl-2-(phenylethynyl)quinolin-6-yl)acetic acid] gave an EC50 of 51 nM.
For `Cc1cc2nc(CCc3ccccc3)ccc2c(-c2ccc3c4c(ccnc24)CCO3)c1[C@H](OC(C)(C)C)C(=O)O` (atropisomer, axis not shown) [Compound 41, (S)-2-tert-butoxy-2-((R)-5-(2,3-dihydropyrano[4,3,2-de]quinolin-7-yl)-7-methyl-2-phenethylquinolin-6-yl)acetic acid], the EC50 was 26 nM.
`Cc1cc2nc(C#CC3CC3)ccc2c(-c2ccc3c4c(ccnc24)CCO3)c1[C@H](OC(C)(C)C)C(=O)O` (atropisomer, axis not shown) [Compound 42, (S)-2-tert-butoxy-2-((R)-2-(cyclopropylethynyl)-5-(2,3-dihydropyrano[4,3,2-de]quinolin-7-yl)-7-methylquinolin-6-yl)acetic acid] gave an EC50 of 46 nM.
Compound `Cc1cc2nc(CCC3CC3)ccc2c(-c2ccc3c4c(ccnc24)CCO3)c1[C@H](OC(C)(C)C)C(=O)O` (atropisomer, axis not shown) [Compound 43, (S)-2-tert-Butoxy-2-((R)-2-(2-cyclopropylethyl)-5-(2,3-dihydropyrano[4,3,2-de]quinolin-7-yl)-7-methylquinolin-6-yl)acetic acid] has an EC50 of 27 nM.
`CC#Cc1ccc2c(-c3ccc4c5c(ccnc35)CCO4)c([C@H](OC(C)(C)C)C(=O)O)c(C)cc2n1` (atropisomer, axis not shown) [Compound 44, (S)-2-tert-Butoxy-2-((R)-5-(2,3-dihydropyrano[4,3,2-de]quinolin-7-yl)-7-methyl-2-(prop-1-ynyl)quinolin-6-yl)acetic acid] gave an EC50 of 18 nM.
Compound `C#Cc1ccc2c(-c3ccc4c5c(ccnc35)CCO4)c([C@H](OC(C)(C)C)C(=O)O)c(C)cc2n1` (atropisomer, axis not shown) [Compound 45, (S)-2-tert-butoxy-2-((R)-5-(2,3-dihydropyrano[4,3,2-de]quinolin-7-yl)-2-ethynyl-7-methylquinolin-6-yl)acetic acid] has an EC50 of 29200 nM.
Work on `Cc1cc2nc(C3CCC3)ccc2c(-c2ccc3c4c(ccnc24)CCO3)c1[C@H](OC(C)(C)C)C(=O)O` (atropisomer, axis not shown) [Compound 47, (S)-2-tert-butoxy-2-((R)-2-cyclobutyl-5-(2,3-dihydropyrano[4,3,2-de]quinolin-7-yl)-7-methylquinolin-6-yl)acetic acid] yielded an EC50 of 14 nM.
Work on `C=CCCc1ccc2c(-c3ccc4c5c(ccnc35)CCO4)c([C@H](OC(C)(C)C)C(=O)O)c(C)cc2n1` (atropisomer, axis not shown) [Compound 48, (S)-2-((R)-2-(but-3-enyl)-5-(2,3-dihydropyrano[4,3,2-de]quinolin-7-yl)-7-methylquinolin-6-yl)-2-tert-butoxyacetic acid] yielded an EC50 of 26 nM.
Work on `Cc1cc2nc(CC(C)C)ccc2c(-c2ccc3c4c(ccnc24)CCO3)c1[C@H](OC(C)(C)C)C(=O)O` (atropisomer, axis not shown) [Compound 50, (S)-2-tert-butoxy-2-((R)-5-(2,3-dihydropyrano[4,3,2-de]quinolin-7-yl)-2-isobutyl-7-methylquinolin-6-yl)acetic acid] yielded an EC50 of 24 nM.
For `Cc1cc2nc(C3CCCC3)ccc2c(-c2ccc3c4c(ccnc24)CCO3)c1[C@H](OC(C)(C)C)C(=O)O` (atropisomer, axis not shown) [Compound 51, (S)-2-tert-Butoxy-2-((R)-2-cyclopentyl-5-(2,3-dihydropyrano[4,3,2-de]quinolin-7-yl)-7-methylquinolin-6-yl)acetic acid], the EC50 was 30 nM.
`Cc1cc2nc(C3CCCCC3)ccc2c(-c2ccc3c4c(ccnc24)CCO3)c1[C@H](OC(C)(C)C)C(=O)O` (atropisomer, axis not shown) [Compound 52, (S)-2-tert-Butoxy-2-((R)-2-cyclohexyl-5-(2,3-dihydropyrano[4,3,2-de]quinolin-7-yl)-7-methylquinolin-6-yl)acetic acid] gave an EC50 of 25 nM.
Work on `Cc1cc2nc(Cc3ccccc3)ccc2c(-c2ccc3c4c(ccnc24)CCO3)c1[C@H](OC(C)(C)C)C(=O)O` (atropisomer, axis not shown) [Compound 53, (S)-2-((R)-2-Benzyl-5-(2,3-dihydropyrano[4,3,2-de]quinolin-7-yl)-7-methylquinolin-6-yl)-2-tert-butoxyacetic acid] yielded an EC50 of 360 nM.
`Cc1cc2nc(-c3cccc(Cl)c3)ccc2c(-c2ccc3c4c(ccnc24)CCO3)c1[C@H](OC(C)(C)C)C(=O)O` (atropisomer, axis not shown) [Compound 55, (S)-2-tert-Butoxy-2-((R)-2-(3-chlorophenyl)-5-(2,3-dihydropyrano[4,3,2-de]quinolin-7-yl)-7-methylquinolin-6-yl)acetic acid] showed an EC50 of 41 nM.
In the case of `Cc1cc2nc(-c3ccc(Cl)cc3)ccc2c(-c2ccc3c4c(ccnc24)CCO3)c1[C@H](OC(C)(C)C)C(=O)O` (atropisomer, axis not shown) [Compound 56, (S)-2-tert-Butoxy-2-((R)-2-(4-chlorophenyl)-5-(2,3-dihydropyrano[4,3,2-de]quinolin-7-yl)-7-methylquinolin-6-yl)acetic acid], the EC50 is reported as 40 nM.
For `Cc1cc2nc(-c3ccccc3)ccc2c(-c2ccc3c4c(ccnc24)CCO3)c1[C@H](OC(C)(C)C)C(=O)O` (atropisomer, axis not shown) [Compound 57, (S)-2-tert-Butoxy-2-((R)-5-(2,3-dihydropyrano[4,3,2-de]quinolin-7-yl)-7-methyl-2-phenylquinolin-6-yl)acetic acid], the EC50 was 20 nM.
In the case of `Cc1cc2nc(C3CC3)ccc2c(-c2ccc3c4c(ccnc24)CCO3)c1[C@H](OC(C)(C)C)C(=O)O` (atropisomer, axis not shown) [Compound 58, (S)-2-tert-Butoxy-2-((R)-2-cyclopropyl-5-(2,3-dihydropyrano[4,3,2-de]quinolin-7-yl)-7-methylquinolin-6-yl)acetic acid], the EC50 is reported as 14 nM.
Work on `Cc1cc2c(ccc3nc(-c4ccccc4)cn32)c(-c2ccc3c4c(ccnc24)CCO3)c1[C@H](OC(C)(C)C)C(=O)O` (atropisomer, axis not shown) [Compound 61, (S)-2-tert-Butoxy-2-((R)-6-(2,3-dihydropyrano[4,3,2-de]quinolin-7-yl)-8-methyl-2-phenylimidazo[1,2-a]quinolin-7-yl)acetic acid] yielded an EC50 of 119 nM.
`Cc1cc2c(ccc(=O)n2Cc2ccccc2)c(-c2ccc3c4c(ccnc24)CCO3)c1[C@H](OC(C)(C)C)C(=O)O` (atropisomer, axis not shown) [Compound 68, (S)-2-((R)-1-benzyl-5-(2,3-dihydropyrano[4,3,2-de]quinolin-7-yl)-7-methyl-2-oxo-1,2-dihydroquinolin-6-yl)-2-tert-butoxyacetic acid] gave an EC50 of 29200 nM.
`Cc1cc2nc(-c3ccn[nH]3)ccc2c(-c2ccc3c4c(ccnc24)CCO3)c1[C@H](OC(C)(C)C)C(=O)O` (atropisomer, axis not shown) [Compound 71, (S)-2-tert-butoxy-2-((R)-5-(2,3-dihydropyrano[4,3,2-de]quinolin-7-yl)-7-methyl-2-(1H-pyrazol-5-yl)quinolin-6-yl)acetic acid] showed an EC50 of 118 nM.
`Cc1cc2nc(-c3cncnc3)ccc2c(-c2ccc3c4c(ccnc24)CCO3)c1[C@H](OC(C)(C)C)C(=O)O` (atropisomer, axis not shown) [Compound 72, (S)-2-tert-Butoxy-2-((R)-5-(2,3-dihydropyrano[4,3,2-de]quinolin-7-yl)-7-methyl-2-(pyrimidin-5-yl)quinolin-6-yl)acetic acid] gave an EC50 of 194 nM.
In the case of `Cc1cc2nc(-c3ccncc3)ccc2c(-c2ccc3c4c(ccnc24)CCO3)c1[C@H](OC(C)(C)C)C(=O)O` (atropisomer, axis not shown) [Compound 75, (S)-2-tert-Butoxy-2-((R)-5-(2,3-dihydropyrano[4,3,2-de]quinolin-7-yl)-7-methyl-2-(pyridin-4-yl)quinolin-6-yl)acetic acid], the EC50 is reported as 38 nM.
In the case of `Cc1cc2nc(-c3cn[nH]c3)ccc2c(-c2ccc3c4c(ccnc24)CCO3)c1[C@H](OC(C)(C)C)C(=O)O` (atropisomer, axis not shown) [Compound 78, (S)-2-tert-Butoxy-2-((R)-5-(2,3-dihydropyrano[4,3,2-de]quinolin-7-yl)-7-methyl-2-(1H-pyrazol-4-yl)quinolin-6-yl)acetic acid], the EC50 is reported as 163 nM.
Compound `Cc1cc2nc(-c3ccccn3)ccc2c(-c2ccc3c4c(ccnc24)CCO3)c1[C@H](OC(C)(C)C)C(=O)O` (atropisomer, axis not shown) [Compound 80, (S)-2-tert-Butoxy-2-((R)-5-(2,3-dihydropyrano[4,3,2-de]quinolin-7-yl)-7-methyl-2-(pyridin-2-yl)quinolin-6-yl)acetic acid] has an EC50 of 52 nM.
Compound `Cc1cc2nc(-c3cccnc3)ccc2c(-c2ccc3c4c(ccnc24)CCO3)c1[C@H](OC(C)(C)C)C(=O)O` (atropisomer, axis not shown) [Compound 81, (S)-2-tert-butoxy-2-((R)-5-(2,3-dihydropyrano[4,3,2-de]quinolin-7-yl)-7-methyl-2-(pyridin-3-yl)quinolin-6-yl)acetic acid] has an EC50 of 69 nM.

— patent publication US9296758B2, “2-quinolinyl-acetic acid derivatives as HIV antiviral compounds” (GILEAD SCIENCES, INC., priority 2010, dated 2016)
